Target: Cathepsin S (Homo sapiens, UniProt P25774)
Assay: Inhibition Assay
Experimental: 5 μL of a human cathepsin S enzyme (R&D1183-CY-010) was added to a 96-well plate so as to be 20 ng/well.

Sequence of Cathepsin S (P25774 whole entry): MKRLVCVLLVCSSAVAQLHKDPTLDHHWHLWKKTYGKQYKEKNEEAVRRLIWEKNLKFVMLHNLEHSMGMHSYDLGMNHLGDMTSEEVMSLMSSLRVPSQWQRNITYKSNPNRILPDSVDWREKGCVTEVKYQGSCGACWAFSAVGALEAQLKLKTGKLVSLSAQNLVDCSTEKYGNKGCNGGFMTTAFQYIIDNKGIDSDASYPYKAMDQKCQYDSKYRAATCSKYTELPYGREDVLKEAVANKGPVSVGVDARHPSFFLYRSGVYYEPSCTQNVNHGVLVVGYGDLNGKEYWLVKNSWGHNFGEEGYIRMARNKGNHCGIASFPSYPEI

Q: With CN(C)C(=O)CN1CCC(CCOc2ccc(-c3nc(C#N)nc4c3ncn4C)cc2C(F)(F)F)CC1 [US9328118, 72] as the compound, how does the IC50 read?
A: 1.6 nM

— BindingDB's records for patent US9328118 (Astellas Pharma Inc, 2016)
